Data published in the supplement of paper PMC10307832.

Experiments:
Assay in all cases: relative viability (nuclei count vs DMSO), 5 days (fraction); higher = more cells survive
Carboplatin + Lapatinib = compound: C1CC(C1)(C(=O)O)C(=O)O.[NH2-].[NH2-].[Pt+2] [Carboplatin] + CS(=O)(=O)CCNCc1ccc(-c2ccc3ncnc(Nc4ccc(OCc5cccc(F)c5)c(Cl)c4)c3c2)o1 [Lapatinib] (partner 2 µM)
Method in brief: (§1)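 Relative viability is defined as nuclei in treated wells over nuclei in vehicle wells. Duplicate plates were run and medians reported. Lung cancer cell lines in 1536-well plates were dosed by pin tool one day after seeding, with one drug or with a fixed anchor-drug dose plus five library-drug doses (not always all listed) in √10 steps, and nuclei were counted after 5 days.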

GSK126 + Trametinib = compound: CC[C@H](C)N1C=C(C2=C(C=C(C=C21)C3=CN=C(C=C3)N4CCNCC4)C(=O)NCC5=C(C=C(NC5=O)C)C)C [GSK126] + CC(=O)Nc1cccc(-n2c(=O)n(C3CC3)c(=O)c3c(Nc4ccc(I)cc4F)n(C)c(=O)c(C)c32)c1 [Trametinib] (partner 0.02 µM)
Method in brief: as §1

MLN4924 + Luminespib = compound: NS(=O)(=O)OC[C@@H]1C[C@@H](n2ccc3c(N[C@H]4CCc5ccccc54)ncnc32)C[C@@H]1O [MLN4924] + CCNC(=O)c1noc(-c2cc(C(C)C)c(O)cc2O)c1-c1ccc(CN2CCOCC2)cc1 [Luminespib] (partner 0.01 µM)
Method in brief: as §1

MLN4924 + Dasatinib = compound: NS(=O)(=O)OC[C@@H]1C[C@@H](n2ccc3c(N[C@H]4CCc5ccccc54)ncnc32)C[C@@H]1O [MLN4924] + Cc1nc(Nc2ncc(C(=O)Nc3c(C)cccc3Cl)s2)cc(N2CCN(CCO)CC2)n1 [Dasatinib] (partner 0.075 µM)
Method in brief: as §1

UMC-11
relative viability (Carboplatin + Lapatinib; first compound 0.08 µM): 1.01
relative viability (Carboplatin + Lapatinib; first compound 0.253 µM): 0.941
relative viability (Carboplatin + Lapatinib; first compound 0.8 µM): 1.07
relative viability (Carboplatin + Lapatinib; first compound 2.53 µM): 1.04
relative viability (Carboplatin + Lapatinib; first compound 8 µM): 0.847
relative viability (GSK126 + Trametinib; first compound 0.08 µM): 0.744
relative viability (GSK126 + Trametinib; first compound 0.253 µM): 0.774
relative viability (GSK126 + Trametinib; first compound 0.8 µM): 0.771
relative viability (GSK126 + Trametinib; first compound 2.53 µM): 0.714
relative viability (GSK126 + Trametinib; first compound 8 µM): 0.728
relative viability (MLN4924 + Luminespib; first compound 0.04 µM): 0.598
relative viability (MLN4924 + Luminespib; first compound 0.1265 µM): 0.351
relative viability (MLN4924 + Luminespib; first compound 0.4 µM): 0.285
relative viability (MLN4924 + Luminespib; first compound 1.265 µM): 0.17
relative viability (MLN4924 + Luminespib; first compound 4 µM): 0.182
relative viability (MLN4924 + Dasatinib; first compound 0.04 µM): 0.505
relative viability (MLN4924 + Dasatinib; first compound 0.1265 µM): 0.349
relative viability (MLN4924 + Dasatinib; first compound 0.4 µM): 0.251
relative viability (MLN4924 + Dasatinib; first compound 1.265 µM): 0.151
relative viability (MLN4924 + Dasatinib; first compound 4 µM): 0.177
